In the supplement of paper PMC10307832:

How the values were obtained:
Experiment in all cases: relative viability (nuclei count vs DMSO), 5 days (fraction); higher = more cells survive
[1] = compound: CCn1c(-c2nonc2N)nc2cnc(Oc3cccc(NC(=O)c4ccc(OCCN5CCOCC5)cc4)c3)cc21 + O=C(CCCCCCC(=O)Nc1ccccc1)NO [Vorinostat] (partner 1 µM)
Method in brief: (§1)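 Relative viability divides the nuclei count in treated wells by that in vehicle wells. Lung cancer cell lines were seeded in 1536-well plates, dosed by pin tool the next day, and fixed and stained after 5 days in one step with final 0.05% Triton X-100, 1% formaldehyde and 1 ug/ml Hoechst. Dosing was a single drug or a fixed anchor-drug dose plus five library-drug doses (not always all listed) in √10 steps, and values are medians of duplicate plates imaged at 4×.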

[2] = compound: N=C1NC(=O)/C(=C/c2ccc(O)cc2)S1 [Mirin] + O=C(CCCCCCC(=O)Nc1ccccc1)NO [Vorinostat] (partner 1 µM)
Method in brief: as §1

[3] = compound: CCn1c(-c2nonc2N)nc2cnc(Oc3cccc(NC(=O)c4ccc(OCCN5CCOCC5)cc4)c3)cc21 + Nc1ncn([C@H]2C[C@H](O)[C@@H](CO)O2)c(=O)n1 [Decitabine] (partner 2 µM)
Method in brief: as §1

[4] = compound: CCn1c(-c2nonc2N)nc2cnc(Oc3cccc(NC(=O)c4ccc(OCCN5CCOCC5)cc4)c3)cc21 + C[C@@H](Oc1cc(-c2cnn(C3CCNCC3)c2)cnc1N)c1c(Cl)ccc(F)c1Cl [Crizotinib] (partner 1 µM)
Method in brief: as §1

| Cell Line | relative viability ([1]; first compound 0.04 µM) | relative viability ([1]; first compound 0.1265 µM) | relative viability ([1]; first compound 0.4 µM) | relative viability ([1]; first compound 1.265 µM) | relative viability ([1]; first compound 4 µM) | relative viability ([2]; first compound 0.25 µM) | relative viability ([2]; first compound 0.7906 µM) | relative viability ([2]; first compound 2.5 µM) | relative viability ([2]; first compound 7.906 µM) | relative viability ([2]; first compound 25 µM) | relative viability ([3]; first compound 0.04 µM) | relative viability ([3]; first compound 0.1265 µM) | relative viability ([3]; first compound 0.4 µM) | relative viability ([3]; first compound 1.265 µM) | relative viability ([3]; first compound 4 µM) | relative viability ([4]; first compound 0.04 µM) | relative viability ([4]; first compound 0.1265 µM) | relative viability ([4]; first compound 0.4 µM) | relative viability ([4]; first compound 1.265 µM) | relative viability ([4]; first compound 4 µM) |
| --- | --- | --- | --- | --- | --- | --- | --- | --- | --- | --- | --- | --- | --- | --- | --- | --- | --- | --- | --- | --- |
| NCI-H647 | 0.894 | 0.638 | 0.57 | 0.378 | 0.276 | 0.4 | 0.536 | 0.586 | 0.623 | 0.48 | 0.379 | 0.426 | 0.276 | 0.288 | 0.347 | 1.28 | 0.865 | 0.813 | 0.511 | 0.389 |
| NCI-H520 | 0.957 | 0.856 | 0.774 | 0.478 | 0.297 | 0.67 | 0.807 | 0.729 | 0.561 | 0.527 | 0.611 | 0.524 | 0.468 | 0.347 | 0.37 | 0.957 | 0.784 | 0.751 | 0.565 | 0.371 |
| HCC-366 | 0.396 | 0.3 | 0.137 | 0.0204 | 0.0377 | 0.391 | 0.203 | 0.404 | 0.244 | 0.413 | 0.342 | 0.338 | 0.482 | 0.108 | 0.0747 | 0.738 | 0.537 | 0.575 | 0.0457 | 0.0363 |
| NCI-H2085 | 0.735 | 0.633 | 0.579 | 0.54 | 0.585 | 0.805 | 0.842 | 0.853 | 0.922 | 0.804 | 0.433 | 0.581 | 0.528 | 0.466 | 0.472 | 0.988 | 0.797 | 0.661 | 0.741 | 0.72 |
